Values of other authors, collected in patent US7517693B2, “Method and apparatus for determining a molecular descriptor of absorption for a candidate compound” (North Carolina State University, priority 2002, dated 2009).

Details: Table III calibration compounds, known literature descriptor; for logL^16 (solute gas-hexadecane partition coefficient): 25° C.

SMILES: c1ccc2c(c1)sc1ccccc12 [Dibenzothiophen]
- logL^16 (solute gas-hexadecane partition coefficient): 7.575
- α (effective solute H-bond acidity): 0.00
- β (effective solute H-bond basicity): 0.18
- π (effective solute dipolarity and polarizability): 1.31

SMILES: CCCCNCCCC [Di-n-butylamine]
- logL^16 (solute gas-hexadecane partition coefficient): 4.349
- α (effective solute H-bond acidity): 0.08
- β (effective solute H-bond basicity): 0.69
- π (effective solute dipolarity and polarizability): 0.30

SMILES: C1CCCCCCC1 [Cyclooctane]
- logL^16 (solute gas-hexadecane partition coefficient): 4.329
- α (effective solute H-bond acidity): 0.00
- β (effective solute H-bond basicity): 0.00
- π (effective solute dipolarity and polarizability): 0.10

SMILES: C1CCNCC1 [Piperidine]
- logL^16 (solute gas-hexadecane partition coefficient): 3.304
- α (effective solute H-bond acidity): 0.10
- β (effective solute H-bond basicity): 0.69
- π (effective solute dipolarity and polarizability): 0.46

SMILES: N#Cc1ccc(O)cc1 [4-Cyanophenol]
- α (effective solute H-bond acidity): 0.79
- β (effective solute H-bond basicity): 0.29
- π (effective solute dipolarity and polarizability): 1.63

SMILES: Oc1ccc(I)cc1 [Compound 4-Iodophenol, 4-Iodophenol]
- logL^16 (solute gas-hexadecane partition coefficient): 5.492
- α (effective solute H-bond acidity): 0.68
- β (effective solute H-bond basicity): 0.20
- π (effective solute dipolarity and polarizability): 1.22

SMILES: Oc1ccc2ccccc2c1 [Compound 2-Naphthol, 2-Naphthol]
- α (effective solute H-bond acidity): 0.61
- β (effective solute H-bond basicity): 0.40
- π (effective solute dipolarity and polarizability): 1.08

SMILES: CCCCCCCCCCCCO [Compound 1-Dodecanol, 1-Dodecanol]
- logL^16 (solute gas-hexadecane partition coefficient): 6.640
- α (effective solute H-bond acidity): 0.37
- β (effective solute H-bond basicity): 0.48
- π (effective solute dipolarity and polarizability): 0.42

SMILES: CCCCCO [Compound 1-Pentanol, 1-Pentanol]
- logL^16 (solute gas-hexadecane partition coefficient): 3.106
- α (effective solute H-bond acidity): 0.37
- β (effective solute H-bond basicity): 0.48
- π (effective solute dipolarity and polarizability): 0.42

SMILES: c1ccc2c(c1)ccc1ccccc12 [Phenanthrene]
- logL^16 (solute gas-hexadecane partition coefficient): 7.632
- α (effective solute H-bond acidity): 0.00
- β (effective solute H-bond basicity): 0.26
- π (effective solute dipolarity and polarizability): 1.29

SMILES: ClC=CCl [1,2-Dichloroethene]
- α (effective solute H-bond acidity): 0.11
- β (effective solute H-bond basicity): 0.05
- π (effective solute dipolarity and polarizability): 0.61

SMILES: N#Cc1cccc(O)c1 [3-Cyanophenol]
- logL^16 (solute gas-hexadecane partition coefficient): 5.181
- α (effective solute H-bond acidity): 0.77
- β (effective solute H-bond basicity): 0.28
- π (effective solute dipolarity and polarizability): 1.55

SMILES: OCC(F)(F)F [2,2,2-Trifluoroethanol]
- logL^16 (solute gas-hexadecane partition coefficient): 1.224
- α (effective solute H-bond acidity): 0.57
- β (effective solute H-bond basicity): 0.25
- π (effective solute dipolarity and polarizability): 0.60

SMILES: COc1ccccc1O [2-Methoxyphenol]
- logL^16 (solute gas-hexadecane partition coefficient): 4.449
- α (effective solute H-bond acidity): 0.22
- β (effective solute H-bond basicity): 0.52
- π (effective solute dipolarity and polarizability): 0.91

SMILES: CO [Methanol]
- logL^16 (solute gas-hexadecane partition coefficient): 0.970
- α (effective solute H-bond acidity): 0.43
- β (effective solute H-bond basicity): 0.47
- π (effective solute dipolarity and polarizability): 0.44

SMILES: CCCCCCF [1-Fluorohexane]
- logL^16 (solute gas-hexadecane partition coefficient): 2.951
- α (effective solute H-bond acidity): 0.00
- β (effective solute H-bond basicity): 0.10
- π (effective solute dipolarity and polarizability): 0.35

SMILES: CCN [Ethylamine]
- logL^16 (solute gas-hexadecane partition coefficient): 1.677
- α (effective solute H-bond acidity): 0.16
- β (effective solute H-bond basicity): 0.61
- π (effective solute dipolarity and polarizability): 0.35

SMILES: Cc1ccccc1O [o-Cresol]
- logL^16 (solute gas-hexadecane partition coefficient): 4.218
- α (effective solute H-bond acidity): 0.52
- β (effective solute H-bond basicity): 0.30
- π (effective solute dipolarity and polarizability): 0.86

SMILES: ClC(Cl)(Cl)Cl [Tetrachloromethane]
- logL^16 (solute gas-hexadecane partition coefficient): 2.823
- α (effective solute H-bond acidity): 0.00
- β (effective solute H-bond basicity): 0.00
- π (effective solute dipolarity and polarizability): 0.38

SMILES: OC1CCCCC1 [Cyclohexanol]
- α (effective solute H-bond acidity): 0.32
- β (effective solute H-bond basicity): 0.57
- π (effective solute dipolarity and polarizability): 0.54

SMILES: Oc1ccc(F)cc1 [4-Fluorophenol]
- logL^16 (solute gas-hexadecane partition coefficient): 3.844
- α (effective solute H-bond acidity): 0.63
- β (effective solute H-bond basicity): 0.23
- π (effective solute dipolarity and polarizability): 0.97

SMILES: CN(C)C [Trimethylamine]
- logL^16 (solute gas-hexadecane partition coefficient): 1.620
- α (effective solute H-bond acidity): 0.00
- β (effective solute H-bond basicity): 0.67
- π (effective solute dipolarity and polarizability): 0.20

SMILES: c1ccccc1 [Benzene]
- π (effective solute dipolarity and polarizability): 0.52

SMILES: ClCCl [Dichloromethane]
- logL^16 (solute gas-hexadecane partition coefficient): 2.019
- α (effective solute H-bond acidity): 0.10
- β (effective solute H-bond basicity): 0.05
- π (effective solute dipolarity and polarizability): 0.57

SMILES: Sc1ccccc1 [Thiophenol]
- α (effective solute H-bond acidity): 0.09
- β (effective solute H-bond basicity): 0.16
- π (effective solute dipolarity and polarizability): 0.80

SMILES: Cc1ccc([N+](=O)[O-])cc1 [4-Nitrotoluene]
- logL^16 (solute gas-hexadecane partition coefficient): 5.154
- α (effective solute H-bond acidity): 0.00
- β (effective solute H-bond basicity): 0.28
- π (effective solute dipolarity and polarizability): 1.11

SMILES: CCCCCCCCCl [1-Chlorooctane]
- logL^16 (solute gas-hexadecane partition coefficient): 4.772
- α (effective solute H-bond acidity): 0.00
- β (effective solute H-bond basicity): 0.10
- π (effective solute dipolarity and polarizability): 0.40

SMILES: Oc1ccccc1F [2-Fluorophenol]
- logL^16 (solute gas-hexadecane partition coefficient): 3.453
- α (effective solute H-bond acidity): 0.61
- β (effective solute H-bond basicity): 0.26
- π (effective solute dipolarity and polarizability): 0.69

SMILES: CCCCN [n-Butylamine]
- α (effective solute H-bond acidity): 0.16
- β (effective solute H-bond basicity): 0.61
- π (effective solute dipolarity and polarizability): 0.35

SMILES: CCC(=O)c1ccccc1 [Ethylphenylketone]
- logL^16 (solute gas-hexadecane partition coefficient): 4.971
- α (effective solute H-bond acidity): 0.00
- β (effective solute H-bond basicity): 0.51
- π (effective solute dipolarity and polarizability): 0.95

SMILES: CCCCCCCl [1-Chlorohexane]
- logL^16 (solute gas-hexadecane partition coefficient): 3.777
- α (effective solute H-bond acidity): 0.00
- β (effective solute H-bond basicity): 0.10
- π (effective solute dipolarity and polarizability): 0.40

SMILES: OCc1ccccc1 [Benzyl alcohol]
- logL^16 (solute gas-hexadecane partition coefficient): 4.221
- α (effective solute H-bond acidity): 0.33
- β (effective solute H-bond basicity): 0.56
- π (effective solute dipolarity and polarizability): 0.87

SMILES: CCF [Fluoroethane]
- logL^16 (solute gas-hexadecane partition coefficient): 0.559
- α (effective solute H-bond acidity): 0.00
- β (effective solute H-bond basicity): 0.10
- π (effective solute dipolarity and polarizability): 0.35

SMILES: C1CCCCC1 [Cyclohexane]
- logL^16 (solute gas-hexadecane partition coefficient): 2.964
- α (effective solute H-bond acidity): 0.00
- β (effective solute H-bond basicity): 0.00
- π (effective solute dipolarity and polarizability): 0.10

SMILES: CCCCCCCCCCCO [Compound 1-Undecanol, 1-Undecanol]
- logL^16 (solute gas-hexadecane partition coefficient): 6.130
- α (effective solute H-bond acidity): 0.37
- β (effective solute H-bond basicity): 0.48
- π (effective solute dipolarity and polarizability): 0.42

SMILES: Oc1ccc(Cl)cc1 [4-Chlorophenol]
- logL^16 (solute gas-hexadecane partition coefficient): 4.775
- α (effective solute H-bond acidity): 0.67
- β (effective solute H-bond basicity): 0.20
- π (effective solute dipolarity and polarizability): 1.08

SMILES: CCN(CC)CC [Triethylamine]
- logL^16 (solute gas-hexadecane partition coefficient): 3.040
- α (effective solute H-bond acidity): 0.00
- β (effective solute H-bond basicity): 0.79
- π (effective solute dipolarity and polarizability): 0.15

SMILES: COC(=O)c1ccccc1C(=O)OC [Dimethyl phthalate]
- α (effective solute H-bond acidity): 0.00
- β (effective solute H-bond basicity): 0.88
- π (effective solute dipolarity and polarizability): 1.41

SMILES: Cc1c(C)c(C)c(C)c(C)c1C [Hexamethylbenzene]
- logL^16 (solute gas-hexadecane partition coefficient): 6.557
- α (effective solute H-bond acidity): 0.00
- β (effective solute H-bond basicity): 0.21
- π (effective solute dipolarity and polarizability): 0.72
